Experimental data: article PMC4920673, “Nitroimidazole carboxamides as antiparasitic agents targeting Giardia lamblia, Entamoeba histolytica and Trichomonas vaginalis” (European Journal of Medicinal Chemistry, 2016)
≈ marks a conversion by molar mass, not a printed value. Where two headings read alike, the source gives them in different places.

Legend:
[1] = system: G. lamblia WB trophozoites; experiment: Light microscopy of G. lamblia WB growth and survival; type: cell-based, Giardia lamblia; settings: for Parasite cell growth by microscopy: 3 × EC50 (metronidazole 18 μM, 12a 1.5 μM), 48 h, relative to vehicle control; for Morphology of treated G. lamblia: 3 × EC50, 48 h, phase contrast
Procedure: The effect of compounds on G. lamblia WB growth and survival was examined by light microscopy. Briefly, stock compounds were diluted in DMSO (100%) to give 400 × final concentration of compound. […]. Assay plates were incubated for 48 h at 37 °C in the GasPak™ EZ Anaerobe Gas Generating Pouch Systems (VWR, West Chester, PA) to maintain anaerobic conditions throughout the incubation period. The assays were performed in triplicate (3 wells/treatment). […]

[2] = Metabolic stability in liver microsomes; type: in vitro ADME, human
Procedure: Metabolic stability studies were performed with human liver microsomes (HMMC-PL, Lot# PL050B-B, Thermo Fisher Scientific USA) with test compound (5 μM) degradation monitored by LC/MS/MS analysis. Stock solutions (2.5 mM) of the test compounds were prepared in DMSO. […] The reaction was initiated by addition of NADPH solution (cofactor) in potassium phosphate buffer (final concentration 1 mM). Aliquots (180 μL) from the reaction mixture were withdrawn (t = 0, 10, 30, 60 and 120 min) and quenched by adding ice-cold stop solution (540 μL) comprising 0.5 μM carbutamide internal standard in acetonitrile: methanol: formic acid (1: 1: 0.001). Reaction samples were incubated at 4 °C for 30 min, centrifuged at 14,000 × g for 8 min and the clear supernatant was transferred to a vial for LC/MS/MS analysis. The percentage of compound metabolised at different times was calculated as a percentage of the levels at the start of incubation (t = 0 min sample). Matrix blank was also prepared as a control. […] LC/MS/MS parameters are detailed in the supplementary information (Supplementary Table 1).

G. lamblia WB (MtzS) = experiment: ATP-bioluminescence growth/survival EC50 assay, G. lamblia WB; settings: for EC50: Giardia duodenalis; for S.I (CC50/EC50): average cytotoxicity against HEK293 and HepG2 / G. lamblia WB activity
Procedure: (§1) Compounds were screened for antiparasitic activity using an ATP-bioluminescence based assay for cell growth and survival, [24]. […] Viable cell numbers were determined in triplicate using the CellTiter-Glo Luminescent Cell Viability Assay.

Giardia = system: Giardia; set-up: method as in PMID 23403423; settings: cited from earlier work
T. vaginalis F1623 = experiment: ATP-bioluminescence growth/survival EC50 assay, T. vaginalis; type: cell-based, Trichomonas vaginalis; settings: Trichomonas vaginalis
Procedure: as §1

[3] = Plasma protein binding by ultrafiltration; type: in vitro ADME; settings: human
Procedure: Plasma Protein Binding (PPB) was performed using an Ultrafiltration method, [28]. […] Samples were incubated at […] for 30 min, then centrifuged at 14,000 × g for 8 min, with the clear supernatant transferred to a vial for LC/MS/MS analysis. […] The fraction of unbound compound was calculated by determining the concentration of the filtered sample and the concentration of unfiltered sample. […] LC/MS/MS parameters are detailed in the supplementary information (Supplementary Table 1).

[4] = Resazurin cytotoxicity assay, HepG2; type: cell-based, Human; settings: human, 24 h, highest concentration 100 μM, n = 3, read-out: CC50 Hep G2
Procedure, shortened: (§2)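 Cells pre-cultured 24 h in DMEM/10% FBS at 37 °C, then exposed 24 h to compound dilution series (top 100 μM). Viability by 5 μM resazurin, 2 h, fluorescence 560/590 nm; 1% Triton X-100 as lysis control; CC50 from curve fitting.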

[5] = cited from earlier work
E. histolytica HM1:IMSS = experiment: ATP-bioluminescence growth/survival EC50 assay, E. histolytica; type: cell-based, Entamoeba histolytica; settings: Entamoeba histolytica
Procedure: as §1

G. lamblia 713M3 (MtzR) = experiment: ATP-bioluminescence growth/survival EC50 assay, G. lamblia 713M3; type: cell-based, Giardia lamblia; settings: Giardia duodenalis
Procedure: as §1

[6] = Resazurin cytotoxicity assay, HEK293; type: cell-based, Human; settings: human, 24 h, highest concentration 100 μM, n = 3, read-out: CC50 HEK 293
Procedure, shortened: as §2

[7] = system: C. difficile NAP1/027 (ATCC BAA-1803); experiment: Broth microdilution MIC assay, C. difficile NAP1/027; type: cell-based, Clostridium difficile; settings: Clostridioides difficile, ATCCBAA1803; strain NAP1/027
Procedure, shortened: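 Strains grown anaerobically in BHIS at 37 °C overnight; compounds two-fold serially diluted (64 to 0.03 μg/mL) in pre-reduced medium under anaerobic atmosphere (5% H2, 10% CO2, 85% N2). Plates incubated 24 h at 37 °C; MIC taken as lowest concentration without visible growth, median of replicates reported.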

giardiasis = settings: cited from earlier work
[8] = system: C. difficile 630 (ATCC BAA-1382); experiment: Broth microdilution MIC assay, C. difficile 630; type: cell-based, Clostridium difficile; settings: Clostridioides difficile, ATCCBAA1382
Procedure, shortened: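 Compounds two-fold serially diluted against overnight anaerobic BHIS cultures of the strain, following CLSI methods modified in broth and inoculum for C. difficile. Plates incubated 24 h at 37 °C; MIC is the lowest concentration without visible growth, median reported with range.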

H. meleagridis = system: H. meleagridis; set-up: method as in earlier work; settings: turkey; cited from earlier work
T. vaginalis = system: T. vaginalis; set-up: method as in earlier work; settings: cited from earlier work
[9] = read-out: EC50 G. lamblia WB, MtzS strain WB, minimum n = 3
[10] = read-out: pEC50 ± SE G. lamblia WB, MtzS strain WB (converted)
[11] = read-out: EC50 G. lamblia 713M3, MtzR strain 713M3, minimum n = 3
[12] = read-out: pEC50 ± SE G. lamblia 713M3, MtzR strain 713M3 (converted)
[13] = strain 630, MtzS, median of n = 4, read-out: MIC C. difficile 630
[14] = read-out: EC50 E. histolytica HM1:IMSS
[15] = read-out: pEC50 ± SE E. histolytica HM1:IMSS (converted)
[16] = 5 μM, human liver microsomes 1 mg/mL, NADPH
[17] = read-out: EC50 T. vaginalis F1623, MtzS, minimum n = 3
[18] = read-out: pEC50 ± SE T. vaginalis F1623, MtzS (converted)

Compound | EC50 (G. lamblia WB (MtzS); [9]) [µM] | EC50 (G. lamblia WB (MtzS); [10]) [µM] | CC50 at 24 h ([4]; HepG2 cells) [µM] | EC50 (G. lamblia 713M3 (MtzR); [11]) [µM] | EC50 (G. lamblia 713M3 (MtzR); [12]) [µM] | CC50 at 24 h ([6]; HEK293 cells) [µM] | MIC [7] [µg/mL] | MIC [8, 13] [µg/mL] | S.I (CC50/EC50) (G. lamblia WB (MtzS)) | EC50 (E. histolytica HM1:IMSS; [14]) [µM] | EC50 (E. histolytica HM1:IMSS; [15]) [µM] | EC50 (T. vaginalis F1623; [17]) [µM] | EC50 (T. vaginalis F1623; [18]) [µM] | other results
Cc1ncc([N+](=O)[O-])n1CCO [Compound 1, Metronidazole, reference compound] | 6.1 | 6.17 | > 100 | 18 | 18.2 | > 100 | 0.5 (≈ 2.92 µM) | 0.5 (≈ 2.92 µM) |  |  |  |  |  | Parasite cell growth by microscopy [1]: inhibited; Morphology of treated G. lamblia [1]: remained similar to the vehicle control; Microsome stability (% remaining at 2 h) ([2]; human, microsomes): 100 % remaining; EC50 (G. lamblia WB (MtzS); read-out: EC50 against G. lamblia strains, G. lamblia strains including metronidazole-resistant strains, stated together): 6.1 to 18 µM; Effect on Giardia cells in prior study (Giardia): slowed the rate of oscillation of the Giardia flagella; EC50 (T. vaginalis F1623; MtzS, minimum n = 3, read-out: EC50 T. vaginalis F1623): 0.8 µM; EC50 (T. vaginalis F1623; MtzS, read-out: pEC50 ± SE T. vaginalis F1623 (converted)): 0.794 µM; fraction unbound at 30 min, 5 μM ([3]; plasma, Plasma protein binding (% bound)): > 0.95; Plasma protein binding [5]: mostly unbound; EC50 (E. histolytica HM1:IMSS; MtzS, minimum n = 3, read-out: EC50 E. histolytica HM1:IMSS): 5 µM; EC50 (E. histolytica HM1:IMSS; MtzS, read-out: pEC50 ± SE E. histolytica HM1:IMSS (converted)): 5.01 µM; Treatment failure in giardiasis cases (giardiasis): up to 20%; MIC ([8]; 630 and NAP1/027 strains together or strain not given, read-out: MIC C. difficile): 0.5 µg/mL (≈ 2.92 µM)
CCOC(=O)c1nc([N+](=O)[O-])cn1Cc1ccc(OC(F)(F)F)cc1 [Compound 14c, Ethyl 4-nitro-1-(4-(trifluoromethoxy)benzyl)-1H-imidazole-2-carboxylate] | 6 | 6.03 |  |  |  |  | > 64 | > 64 | >17 | 51 | 51.3 |  |  | CC50 at 24 h [4]: > 100 µM; melting point: 112 °C; CC50 at 24 h [6]: > 100 µM
O=C(NCc1ccc(F)cc1)c1ncc([N+](=O)[O-])[nH]1 [Compound 12a, N-(4-fluorobenzyl)-5-nitro-1H-imidazole-2-carboxamide] | 0.5 | 0.525 |  | 2.4 | 2.34 |  | 4 (≈ 15.1 µM) | 4 (≈ 15.1 µM) |  | 3.6 | 3.63 | 2.3 | 2.34 | Parasite cell growth by microscopy [1]: inhibited; Morphology of treated G. lamblia [1]: altered; Microsome stability (% remaining at 2 h) [2, 16]: 94 % remaining; CC50 at 24 h [4]: > 100 µM; CC50 at 24 h [6]: > 100 µM
CN(C)C(=O)c1ncc([N+](=O)[O-])n1C [Compound 8g, N,N,1-trimethyl-5-nitro-1H-imidazole-2-carboxamide] | 2.4 | 2.4 | > 100 | > 20 | > 20 | > 100 | 64 (≈ 323 µM) | 32 (≈ 161 µM) | >42 | 14 | 14.1 | 1.3 | 1.29 | Activity in in vivo model of H. meleagridis infection (H. meleagridis): activity; Activity in in vivo mouse model of T. vaginalis infection (T. vaginalis): activity
Cn1c([N+](=O)[O-])cnc1C(=O)N1CCOCC1 [Compound 8h, (1-methyl-5-nitro-1H-imidazol-2-yl)(morpholino)methanone] | 1.6 | 1.58 | > 100 | 11 | 11.2 | > 100 | 32 (≈ 133 µM) | 32 (≈ 133 µM) | >63 | 14 | 14.1 | 0.6 | 0.575 | Microsome stability (% remaining at 2 h) [2, 16]: 97 % remaining; Activity in in vivo model of H. meleagridis infection (H. meleagridis): activity; fraction unbound at 0.5 h, 5 µM ([3]; pooled human plasma (100%), 5 μM, 100% human plasma, 37 °C, 30 min, ultrafiltration, read-out: Plasma protein binding (% bound) (converted)): 0.91; Activity in in vivo mouse model of T. vaginalis infection (T. vaginalis): activity
CCS(=O)(=O)CCn1c([N+](=O)[O-])cnc1C [Compound 2, tinidazole] |  |  |  |  |  |  |  |  |  |  |  |  |  | Plasma protein binding [5]: mostly unbound
CC(=O)OC[C@H]1O[C@@H]([S-])[C@H](OC(C)=O)[C@@H](OC(C)=O)[C@@H]1OC(C)=O.CCP(CC)CC.[Au+] [auranofin] |  |  |  |  |  |  |  |  |  |  |  |  |  | Effect on Giardia cells in prior study (Giardia): caused cell blebbing
O=C(Nc1ncc([N+](=O)[O-])s1)c1ccccc1O [tizoxanide] |  |  |  |  |  |  |  |  |  |  |  |  |  | Plasma protein binding ([5]; active metabolite of nitazoxanide): highly plasma protein bound
